Active and inactive are the calls of the source.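 The calls were made as follows: active = compounds giving half or more protection of infected cells from virus-caused growth loss, again on retest; inactive = the rest.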 Where a SMILES comes first, the peptide text is derived from it.
Test system: CEM cells HIV-1 protection, formazan growth assay
Assay: NCI AIDS Antiviral Assay
Settings: for IC50: measured here: growth of uninfected CEM cells
Method in brief: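 Five concentrations of each compound were applied to infected and uninfected human CEM cells. Protection from HIV-1 was judged from growth measured with a soluble formazan assay.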

| SMILES | EC50 [µM] | IC50 [µM] | outcome |
| --- | --- | --- | --- |
| CC(C)c1cc[n+](/C(C(=S)Nc2cccc(Cl)c2)=C(/[O-])c2ccc([N+](=O)[O-])cc2)cc1 | > 200 | 69.2 |  |
| CC(C)CN(CC(=O)Nc1cccc(Cl)c1)CC(C)C | > 200 | 141 |  |
| Cc1ccc(-c2c(C#N)c(-c3ccc(Cl)cc3)c(C#N)c(=O)n2NS(=O)(=O)c2ccccc2)cc1 | > 200 | 29.5 |  |
| C/C=C(\NC(=O)C(CCCCN)NC(=O)C(C)NC(=O)C1CSC(C)C(NC(=O)C2CSCC(NC(=O)C(C)NC(=O)C(N)C(C)CC)C(=O)NC(CCCCN)C(=O)NC(Cc3ccccc3)C(=O)NC(CC(C)C)C(=O)N2)C(=O)N2CCCC2C(=O)NCC(=O)N1)C(=O)NCC(=O)NC1CSCC2NC(=O)C(Cc3ccc(O)cc3)NC(=O)C(CSC=CNC2=O)NC(=O)C(CC(N)=O)NC(=O)C(Cc2ccccc2)NC1=O (stereo not given) |  |  | inactive |
| CC(C)CC(NC(=O)C(Cc1ccc(O)cc1)NC(=O)C(CO)NC(=O)C(N)CCC(=O)O)C(=O)NCC(=O)O (stereo not given) (H-ESYLG-OH; configuration not given here) |  |  | inactive |
| CC1ON2CCCC2[C@H]1C(=O)N1C2CC3CCC2(CS1(=O)=O)C3(C)C (stereo not given in full) | > 200 | > 200 |  |
| O=c1cc(C(F)(F)F)[nH]c2c3ncccc3c3nc4ccccc4nc3c12 | 0.214 | 2.82 |  |
| Nc1nc(Nc2ccc(Cl)c(Cl)c2)nc2nc[nH]c12 | > 200 | 20.9 |  |
| C[S+](C)C1(c2ccccc2)C(=O)c2ccccc2C1=O | > 575 | > 575 |  |
| COC(=O)C1=C(SC)SC2(C(=O)OC)C3C=C(C)C4C(N13)C42C(=O)OC (stereo not given) | > 3.63 | > 3.63 |  |
| O=c1[nH]c2cc(Cl)ccc2nc1/C(=N\Nc1ccccc1)C(O)c1ccc2c(c1)OCO2 (stereo not given) | > 209 | > 209 |  |
| COc1ccc2cc1Oc1ccc(cc1)CC1c3c(cc4c(c3Oc3cc5c(cc3OC)CCN(C)C5C2)OCO4)CCN1C (stereo not given) |  |  | inactive |
| Cc1ccc(S(=O)(=O)OI(C#CC(C)(C)C)c2ccccc2)cc1 | > 200 | 1.05 |  |
| Cn1c(N)c(-c2c3ccccc3nc3ccccc23)c(=O)n(C)c1=O | > 40.7 | > 40.7 |  |
| O=C(O)/C(Cl)=C(\Cl)C(=O)c1ccccc1 | > 1020 | > 1020 |  |
| Nc1cc([N+](=O)[O-])ccc1N1C(=O)CCCC1=O | > 200 | > 200 |  |
| COc1ccc(OC)c(-c2cc(=O)c3c(OC)c(OC)c(OC)c(OC)c3o2)c1 | > 200 | 29.5 |  |
| COc1cc(C(=O)N2CCc3c([nH]c4c([N+](=O)[O-])c(OC)ccc34)C2C)cc(OC)c1OC (stereo not given) |  |  | inactive |
| c1cc(-c2cn[nH]c2)cc(-c2cn[nH]c2)c1 |  |  | inactive |
| CCOC(=O)C(/C=N\C(=S)Nc1ccc(OCC)cc1)=C(/O)c1ccccc1 | > 200 | > 200 |  |
| Cn1c(=O)c2nc3n(c2n(C)c1=O)C(=O)C(C#N)N=N3 (stereo not given) | > 200 | > 200 |  |

| SMILES | EC50 [µM] | IC50 [µM] | outcome |
| --- | --- | --- | --- |
| O=c1oc2ccccc2n1CCCn1c(=O)oc2ccccc21 | > 200 | > 200 |  |
| CC[N+]1(CC)CC[N+]2(CCCC(C)CC2)CC1 (stereo not given) |  |  | inactive |
| CCCCCCCCCCCc1c(O)c(=O)c2c(oc3c(=O)c(CCCCCCCCCCC)c(O)c(=O)c3n2-c2ccc(N(C)C)cc2)c1=O | > 2.04 | > 2.04 |  |
| Cn1c2c(c(=O)n(C)c1=O)CN(Cc1ccccc1)CN2 | > 200 | > 200 |  |
| CCc1cc2c(O)c(c1)Cc1cc(CC)cc(c1O)Cc1cc(CC)cc(c1O)Cc1cc(CC)cc(c1O)Cc1cc(CC)cc(c1O)Cc1cc(CC)cc(c1O)Cc1cc(CC)cc(c1O)C2 | > 10 | > 10 |  |
| N=C(N)n1ncc(Cl)c(Cl)c1=O | > 91.2 | 0.407 |  |
| Cc1nc2c(=S)n(C)ncc2[nH]1 | 30.9 | > 100 |  |
| CCOC(=O)CSc1nc(-c2ccc(OC)cc2)c(C#N)c(=O)[nH]1 | > 200 | 97.7 |  |
| COC1(OC)CC(CO)(CNc2nc(N)nc(Cl)c2/C=N\O)C1 | > 200 | 2.69 |  |
| COc1ccc2nc(N/N=C/c3ccc(C)s3)cc(C)c2c1 | > 200 | 12.9 |  |
| Oc1[nH]c2ccccc2c1N=Nc1nc(-c2ccccc2)cs1 | > 200 | > 200 |  |
| COC12C=CC(CC1)C(C)(C)C2OS(C)(=O)=O (stereo not given) |  |  | inactive |
| CC1(C)CC(=O)c2c([nH]c(=S)c(C#N)c2-c2ccc(Br)cc2)C1 | > 200 | 43.7 |  |
| O=c1[nH]nc(Cc2ccc([N+](=O)[O-])cc2)[nH]1 | > 200 | > 200 |  |
| O=[N+]([O-])/C(Cl)=C(/C(Cl)=C(Cl)Cl)N1CCOCC1 | > 200 | 8.71 |  |
| c1ccc(C2=C(c3ccccc3)P(c3ccccc3)C2)cc1 (stereo not given) |  |  | inactive |
| CCNc1ccc(-c2ccccc2)nc1N1CCN(C(=O)c2cc3cc(OC)ccc3[nH]2)CC1 | > 200 | 24 |  |
| COc1c(OCc2ccccc2)c(OCc2ccccc2)cc(CO)c1-c1c(CO)cc(OCc2ccccc2)c(OCc2ccccc2)c1OC | > 2.88 | > 2.88 |  |
| N#C/C(=C\c1cccc(N)c1)c1ccccc1 | > 200 | 57.5 |  |
| CCOC(=O)CN(Cn1cncn1)Cn1cncn1 | > 200 | 28.8 |  |
| CC(=NNC(=S)Nc1ccccc1)c1cccc(C(C)=NNC(=S)Nc2ccccc2)n1 | > 200 | 9.33 |  |

| SMILES | EC50 [µM] | IC50 [µM] | outcome |
| --- | --- | --- | --- |
| CCOC(=O)Cn1c(C)nc2nn(Cc3ccccc3)cc2c1=O | > 200 | > 200 |  |
| Cc1cc(Cl)ccc1N1C(=O)C(=O)C(c2nc3ccccc3s2)/C(=N\NC(=O)c2ccccc2O)C1=O (stereo not given) | > 25.7 | > 25.7 |  |
| CN(c1ccccc1)S(=O)(=O)c1ccc(Cl)cc1 | > 200 |  |  |
| CCOC1CSc2ccccc2C(c2ccccc2)=N1 (stereo not given) | 195 | > 200 |  |
| COC(=O)c1cc(C(=O)c2cc(C(=O)OC)c(OC)c(Br)c2C)c(C)c(Br)c1OC | > 200 | > 200 |  |
| CCCCNc1nc(C(F)(F)F)nc2nc[nH]c12 | > 200 | > 200 |  |
| Cc1ccc2[nH]c3[nH]c(=O)[nH]c(=O)c3c2c1 | > 200 | > 200 |  |
| O=c1[nH]c(=O)n(C2CC(O)C(CO)O2)c2nc3ccc4ccccc4c3nc12 (stereo not given) | > 100 | 13.2 |  |
| NCCCc1c(-c2ccccc2)nc(N)[nH]c1=O | > 200 | > 200 |  |
| Cc1cccc(NC(=S)Nc2ccc(Cl)cc2)n1 | > 200 | > 200 |  |
| C/C(CN1C(=O)c2ccccc2C1=O)=N\NS(=O)(=O)c1ccc(F)cc1 | > 479 | > 479 |  |
| CN(C)N1C(=C(C#N)C#N)C(c2ccccc2)CC1C#N (stereo not given) | > 200 | > 200 |  |
| NC(=O)C(=CNC(=S)Nc1ccc(Cl)c(Cl)c1)C(N)=O | > 200 | 30.2 |  |
| CC1(O)C=CC(=O)C=C1 | > 2000 | 3.47 |  |
| CCOCCN(CCOCC)C(=O)c1ccc2c(c1)no[n+]2[O-] | > 200 | 135 |  |
| O=C(/C=C/c1ccccc1O)c1ccccc1 | > 60.3 | > 60.3 |  |
| Nc1nccc2c([N+](=O)[O-])cccc12 |  |  | inactive |
| Cc1ccc(/C=C(\C#N)c2ccccc2)cc1 | > 229 | > 229 |  |
| Nc1cc(CO)cc(Nc2c3ccccc3nc3ccccc23)c1 | > 2 | 0.347 |  |
| Cn1nccc2c(=O)n(C)c(=O)nc1-2 | > 200 | > 200 |  |
| CCOC(=O)C(O)(C(=O)OCC)c1cc(C(C)(C)C)c(O)c(C(C)(C)C)c1 | > 200 | 83.2 |  |

| SMILES | EC50 [µM] | IC50 [µM] | outcome |
| --- | --- | --- | --- |
| N#CC(C#N)=Cc1cccc(Cl)c1 | > 117 | 22.4 |  |
| CN(C)CCc1ccc(Cl)cc1Cl | > 977 | 407 |  |
| CN1CCOC1(C)c1ccccc1O (stereo not given) | > 200 | > 200 |  |
| Cc1ccc(NC(=O)CC/C(CC(=O)C(C)(C)C)=N/NC(=O)C[N+](C)(C)C)cc1C | > 209 | > 209 |  |
| CO[C@@H]1C=C[C@@]23c4cc5c(cc4C(=O)O[C@H]2CN(C)[C@H]3C1)OCO5 | > 380 | > 380 |  |
| CCCNP(=S)(NCCC)NCCC | > 200 | > 200 |  |
| C/C(CCn1[nH]c(=O)ccc1=O)=N\NC(=O)C(=O)NN | > 1.95 | > 1.95 |  |
| CCOC(=O)C1CCc2c1c(C#N)c1[nH]c3ccccc3n1c2=O (stereo not given) | > 234 | > 234 |  |
| CC(C)(C)c1ccc(Oc2ccc3c(c2)-c2nc-3nc3[nH]c(nc4nc(nc5[nH]c(n2)c2ccc(Oc6ccc(C(C)(C)C)cc6C(C)(C)C)cc52)-c2cc(Oc5ccc(C(C)(C)C)cc5C(C)(C)C)ccc2-4)c2ccc(Oc4ccc(C(C)(C)C)cc4C(C)(C)C)cc32)c(C(C)(C)C)c1 | > 9.77 | > 9.77 |  |
| O=c1oc2ccccc2cc1F | > 302 | > 302 |  |
| COc1ccc(C(=CCC[C@H]2CC[C@@]3(C)[C@@H](CC[C@@H]4[C@@H]3CC[C@]3(C)[C@@H](C(C)CCCC(C)C)CC[C@@H]43)C2)c2ccc(OC)c(C(=O)O)c2)cc1C(=O)O (stereo not given in full) | > 200 | > 200 |  |
| N#CCCN(CCC#N)c1ccc(/C=C2\N=C(c3cc([N+](=O)[O-])ccc3Cl)N(S(=O)(=O)c3ccccc3)C2=O)cc1 | > 12.3 | > 12.3 |  |
| CCC12CCCN(Cc3ccccc3)C1c1c([nH]c3ccccc13)C(C(=O)OC)C2 (stereo not given) | > 30.9 | > 30.9 |  |
| O=P(O)(O)CN1CCNCCN(CP(=O)(O)O)CCNCC1 | > 200 | 10 |  |
| CC1(C)CCCC2(C)[C@@H]1CC[C@]13C[C@](C)(CC[C@@H]21)[C@@H]3CO (stereo not given in full) | > 12.3 | > 12.3 |  |
| NC1=NC(=O)/C(=C/c2ccccc2[N+](=O)[O-])C(N)=N1 |  |  | inactive |
| CC(=O)OCC1OC(n2c(-c3ccc(C)cc3)cc(-c3ccccc3)c(C#N)c2=O)C(OC(C)=O)C(OC(C)=O)C1OC(C)=O (stereo not given) | > 11.7 | > 11.7 |  |
| CC1(C)N([O-])[N+](=O)C1(C)C | > 200 | > 200 |  |
| CCOC(=O)/C=C1\CCCn2c1ncc(C(=O)OCC)c2=O | > 200 | 3.63 |  |
| Cc1ccc(S(=O)(=O)N/N=C/C(=C/c2ccc(Cl)cc2)CC(/C=N/NS(=O)(=O)c2ccc(C)cc2)=C\c2ccc(Cl)cc2)cc1 | > 200 | 3.89 |  |
